{"source": "patent US9079913B2", "about": "“Spiro-oxindole MDM2 antagonists” (The Regents of the University of Michigan, priority 2009, dated 2015)", "key": {"[1]": {"target": "recombinant human His-tagged MDM2 protein (residues 1-118) (Homo sapiens (Human), UniProt Q00987)", "sequence (Q00987 1-118)": "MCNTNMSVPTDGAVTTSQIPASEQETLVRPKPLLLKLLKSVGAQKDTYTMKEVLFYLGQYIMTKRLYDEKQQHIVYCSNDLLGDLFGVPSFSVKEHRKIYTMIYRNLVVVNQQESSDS", "assay": "Fluorescence-polarization MDM2 binding assay;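 for all read-outs here: fluorescence polarization read after three hours of incubation in potassium phosphate buffer containing bovine gamma globulin and Triton X-100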", "conditions": "for IC50: Table 19A, FP binding assay, read-out: MDM2 IC50"}, "[2]": {"system": "Isogenic HCT-116 colon cancer cell lines", "assay": "cells", "format": "cell-based", "method": "Cells were seeded in 96-well flat bottom cell culture plates at a density of 2−3×10^3 cells/well with compounds and incubated for 4 days."}, "[3]": {"system": "cancer cell lines with wild-type p53 / mutated or deleted p53 (ATCC)", "assay": "Cell growth assay (WST-8), other cancer cell lines", "format": "cell-based"}, "[4]": {"assay": "Pharmacokinetic studies in rats", "format": "in vivo, rat", "conditions": "for oral bioavailability / oral pharmacokinetics in rats (in words): oral dosing", "experimental": "Pharmacokinetic studies on MDM2 inhibitors were carried out in rat. For comparison, the MDM2 inhibitor, AT-219, was also studied."}, "SJSA-1 xenograft tumors": {"system": "SJSA-1 xenograft tumors", "assay": "In vivo efficacy, SJSA-1 xenograft model (tumor volume)", "set-up": "species or system C.B-17 SCID mice", "conditions": "PO 100 mg/kg; for % Tumor Growth Inhib. T/C Control 750 mm^3 D24: Exp. No. 2, SJSA-1 xenograft", "method": "SJSA-1 tumor cells were harvested with Trypsin (0.05%)-EDTA (0.53 mM) (GIBCO™, Invitrogen Corp.), growth medium added and cells placed on ice. A cell sample was mixed 1:1 with Trypan Blue (GIBCO™, Invitrogen Corp.) and counted on a hemocytometer to determine the number of live/dead cells. Cells were washed once with 1×PBS (GIBCO™, Invitrogen Corp.) and resuspended in PBS. For Matrigel injections, after washing in PBS, cells are resuspended in an ice cold mixture of 1:1 PBS and Matrigel (BD Biosciences, Invitrogen Corp.) for a final Matrigel protein concentration of 5 mg/ml. SJSA-1 tumors were inoculated into C.B-17 SCID mice at 5×10^6 cells in 0.1 ml with Matrigel. Cells were injected s.c. into the flank region of each mouse using a 27 gauge needle.\nThe size of tumors growing in the mice was measured in two dimensions using calipers. Tumor volume (mm^3)=(A×B2)/2 where A and B are the tumor length and width (in mm), respectively. During treatment, tumor volume and body weight was measured three times a week. […] Mice were kept for an additional 60 days for further observation of tumor growth and toxicity.\nMice with tumors within acceptable size range were randomized into treatment groups of 8 mice for experimental compounds and 10 mice for the Control group. Experimental compounds were given orally, once per day for 2-3 weeks."}, "[5]": {"assay": "In vitro microsomal stability, rat", "format": "in vitro ADME"}, "[6]": {"assay": "In vitro microsomal stability, human", "format": "in vitro ADME"}, "[7]": {"conditions": "Homo sapiens, HCT-116, read-out: HCT-116 (p53-/-) IC50, Table 19A, HCT-116 p53-/-, cell growth"}, "[8]": {"conditions": "Homo sapiens, HCT-116, read-out: HCT-116 (p53 wild-type) IC50, Table 19A, HCT-116 p53 wild-type, cell growth"}, "[9]": {"conditions": "Homo sapiens, LNCaP, Table 19A, LNCAP cells, p53 wild-type, cell growth, read-out: LNCAP (p53 wild-type) IC50"}, "[10]": {"conditions": "rat, IV, 5 mg/kg, plasma, parent compound"}}, "note": "Read-outs that look alike come from different tables or passages of the source."}
{"compound": "C[C@H](N)C(=O)OC1CCC(NC(=O)[C@@H]2N[C@H](CC(C)(C)C)[C@]3(C(=O)Nc4cc(Cl)ccc43)[C@H]2c2cccc(Cl)c2F)CC1", "note": "(stereo partly drawn) [MI-774]", "values": [{"measurement": "IC50", "setting": "[1]", "value": "< 0.1", "unit": "µM"}, {"measurement": "IC50", "setting": "[2]; [7]", "value": 5.6, "unit": "µM"}, {"measurement": "IC50", "setting": "[2]; [8]", "value": "0.3 ± 0.1", "unit": "µM"}, {"measurement": "IC50", "setting": "[3]; [9]", "value": 0.3, "unit": "µM"}, {"measurement": "IC50", "setting": "[3]; Homo sapiens, SJSA-1, Table 19A, SJSA-1 cells, p53 wild-type, cell growth, read-out: SJSA-1 (p53 wild-type) IC50", "value": "0.3 ± 0.1", "unit": "µM"}, {"measurement": "oral bioavailability / oral pharmacokinetics in rats (in words)", "setting": "[4]; rats", "value": "good oral bioavailability"}, {"measurement": "% Tumor Growth Inhib. T/C Control 750 mm^3 D24", "setting": "SJSA-1 xenograft tumors", "value": 21.4, "unit": "%"}]}
{"compound": "CC(C)(C)C[C@H]1N[C@@H](C(=O)NC2CCC(NS(C)(=O)=O)CC2)[C@H](c2cccc(Cl)c2F)[C@@]12C(=O)Nc1cc(Cl)ccc12", "note": "(stereo partly drawn) [MI-772]", "values": [{"measurement": "IC50", "setting": "[1]", "value": "< 1", "unit": "µM"}, {"measurement": "binding to MDM2 (in words)", "setting": "[1]; human MDM2 protein", "value": "high affinities"}, {"measurement": "IC50", "setting": "[2]; read-out: HCT-116 (p53-/-) IC50, Table 19A, HCT-116 p53-/-, cell growth", "value": "> 5", "unit": "µM"}, {"measurement": "IC50", "setting": "[2]; read-out: HCT-116 (p53 wild-type) IC50, Table 19A, HCT-116 p53 wild-type, cell growth", "value": "< 1", "unit": "µM"}, {"measurement": "relative potency vs epimer, binding and cellular studies (in words)", "setting": "[3]", "value": "several times more potent than MI-771"}, {"measurement": "IC50", "setting": "[3]; Table 19A, LNCAP cells, p53 wild-type, cell growth, read-out: LNCAP (p53 wild-type) IC50", "value": "< 1", "unit": "µM"}, {"measurement": "IC50", "setting": "[3]; Table 19A, PC-3 cells, deleted p53, cell growth, read-out: PC-3 (deleted p53) IC50", "value": "> 5", "unit": "µM"}, {"measurement": "IC50", "setting": "[3]; Table 19A, SJSA-1 cells, p53 wild-type, cell growth, read-out: SJSA-1 (p53 wild-type) IC50", "value": "< 1", "unit": "µM"}, {"measurement": "cell growth inhibition (in words)", "setting": "[3]; cancer cell lines with wild-type p53", "value": "effectively inhibit cell growth"}, {"measurement": "microsomal stability (in words)", "setting": "[5]; rat liver microsomes", "value": "very stable"}, {"measurement": "t1/2", "setting": "[5]; rat liver microsomes with NADPH", "value": ">1", "unit": "h"}, {"measurement": "% of compound remaining when incubated in rat liver microsomes with NADPH", "setting": "[5]; rat liver microsomes, 0 min", "value": 100.00, "unit": "%"}, {"measurement": "% of compound remaining when incubated in rat liver microsomes with NADPH", "setting": "[5]; rat liver microsomes, 5 min", "value": 93.46, "unit": "%"}, {"measurement": "% of compound remaining when incubated in rat liver microsomes with NADPH", "setting": "[5]; rat liver microsomes, 10 min", "value": 91.15, "unit": "%"}, {"measurement": "% of compound remaining when incubated in rat liver microsomes with NADPH", "setting": "[5]; rat liver microsomes, 15 min", "value": 89.04, "unit": "%"}, {"measurement": "% of compound remaining when incubated in rat liver microsomes with NADPH", "setting": "[5]; rat liver microsomes, 30 min", "value": 88.27, "unit": "%"}, {"measurement": "% of compound remaining when incubated in rat liver microsomes with NADPH", "setting": "[5]; rat liver microsomes, 45 min", "value": 78.65, "unit": "%"}, {"measurement": "% of compound remaining when incubated in rat liver microsomes with NADPH", "setting": "[5]; rat liver microsomes, 60 min", "value": 75.96, "unit": "%"}, {"measurement": "microsomal stability (in words)", "setting": "[6]; human liver microsomes", "value": "very stable"}, {"measurement": "t1/2", "setting": "[6]; human liver microsomes with NADPH", "value": ">1", "unit": "h"}, {"measurement": "% of compound remaining when incubated in human liver microsomes with NADPH", "setting": "[6]; human liver microsomes, 0 min", "value": 100.00, "unit": "%"}, {"measurement": "% of compound remaining when incubated in human liver microsomes with NADPH", "setting": "[6]; human liver microsomes, 5 min", "value": 95.37, "unit": "%"}, {"measurement": "% of compound remaining when incubated in human liver microsomes with NADPH", "setting": "[6]; human liver microsomes, 10 min", "value": 86.87, "unit": "%"}, {"measurement": "% of compound remaining when incubated in human liver microsomes with NADPH", "setting": "[6]; human liver microsomes, 15 min", "value": 82.24, "unit": "%"}, {"measurement": "% of compound remaining when incubated in human liver microsomes with NADPH", "setting": "[6]; human liver microsomes, 30 min", "value": 77.91, "unit": "%"}, {"measurement": "% of compound remaining when incubated in human liver microsomes with NADPH", "setting": "[6]; human liver microsomes, 45 min", "value": 63.28, "unit": "%"}, {"measurement": "% of compound remaining when incubated in human liver microsomes with NADPH", "setting": "[6]; human liver microsomes, 60 min", "value": 56.87, "unit": "%"}, {"measurement": "oral bioavailability / oral pharmacokinetics in rats (in words)", "setting": "[4]; rats", "value": "modest oral bioavailability"}, {"measurement": "CLz", "setting": "[4]; [10]", "value": 16.7, "unit": "mL/min/kg"}, {"measurement": "Vz", "setting": "[4]; [10]", "value": 10.9, "unit": "L/kg"}, {"measurement": "half-life in rats (in words)", "setting": "[4]; rats, intravenous and oral", "value": "long plasma half-life"}, {"measurement": "% Tumor Growth Inhib. T/C Control 750 mm^3 D24", "setting": "SJSA-1 xenograft tumors", "value": 71.1, "unit": "%"}]}
{"compound": "CC(C)(C)C[C@H]1N[C@@H](C(=O)NCC(C)(C)O)[C@H](c2cccc(Cl)c2F)[C@@]12C(=O)Nc1cc(Cl)ccc12", "note": "[MI-519-62]", "values": [{"measurement": "IC50", "setting": "[2]; Homo sapiens, HCT-116, read-out: HCT-116 (p53-/-) IC50", "value": "> 10", "unit": "µM"}, {"measurement": "IC50", "setting": "[2]; Homo sapiens, HCT-116, read-out: HCT-116 (p53 wild-type) IC50", "value": "< 3", "unit": "µM"}, {"measurement": "IC50", "setting": "[3]; Homo sapiens, LNCaP, read-out: LNCAP (p53 wild-type) IC50", "value": "< 3", "unit": "µM"}, {"measurement": "IC50", "setting": "[3]; Homo sapiens, PC-3, read-out: PC-3 (deleted p53) IC50", "value": "> 10", "unit": "µM"}, {"measurement": "IC50", "setting": "[3]; Homo sapiens, SJSA-1, read-out: SJSA-1 (p53 wild-type) IC50", "value": "< 3", "unit": "µM"}, {"measurement": "% Tumor Growth Inhib. T/C Control 750 mm^3 D24", "setting": "SJSA-1 xenograft tumors", "value": 59.5, "unit": "%"}]}
{"compound": "CC(C)(C)C[C@H]1N[C@@H](C(=O)NCCN2CCN(S(C)(=O)=O)CC2)[C@H](c2cccc(Cl)c2F)[C@@]12C(=O)Nc1cc(Cl)ccc12", "note": "[MI-519-49]", "values": [{"measurement": "IC50", "setting": "[1]", "value": "< 1", "unit": "µM"}, {"measurement": "IC50", "setting": "[2]; [7]", "value": 12.7, "unit": "µM"}, {"measurement": "IC50", "setting": "[2]; [8]", "value": 0.84, "unit": "µM"}, {"measurement": "IC50", "setting": "[3]; [9]", "value": 0.85, "unit": "µM"}, {"measurement": "IC50", "setting": "[3]; Homo sapiens, PC-3, Table 19A, PC-3 cells, deleted p53, cell growth, read-out: PC-3 (deleted p53) IC50", "value": 8.1, "unit": "µM"}, {"measurement": "% Tumor Growth Inhib. T/C Control 750 mm^3 D27", "setting": "SJSA-1 xenograft tumors; Exp. No. 1, SJSA-1 xenograft, D27", "value": 63.8, "unit": "%"}]}
